Measurements taken from patent US9822139B2, “Pharmaceutical composition containing cyclometalated N-heterocyclic carbene complexes for cancer treatment” (THE UNIVERSITY OF HONG KONG, priority 2009, dated 2017).

How the values were obtained:
[1] = tested on: hepatocellular carcinoma (HepG2); assay: MTT cytotoxicity assay, HepG2; format: cell-based, human; conditions: 72 h
Method: (§1) Example 2 describes the in vitro cytotoxicity, which is indicative of the induction of cell death and/or inhibition of cellular proliferation of cancer cells, of the cyclometalated N-heterocyclic complexes on cervical epithelioid carcinoma, hepatocellular carcinoma, leukemia, nasopharyngeal carcinoma, breast carcinoma, melanoma, and lung carcinoma.
(§2) By means of MTT assays, the cytotoxic properties of cyclometalated N-heterocyclic carbene complexes (1-25) were determined toward some established human cancer cell lines including hepatocellular carcinoma (HepG2), cervical epithelioid carcinoma (HeLa), epithelial carcinoma (KB and its camptothecin-resistant cell line KB100), non-small cell lung carcinoma (NCI-H460), leukemia (HL-60), breast carcinoma (MDA-MB-231), melanoma (B16) and nasopharyngeal carcinoma (SUNE1). […] In terms of the IC50 values, they display similar cytotoxic properties compared to the reference complexes cisplatin and camptothecin (CPT).

[2] = tested on: leukemia (HL-60); assay: MTT cytotoxicity assay, HL-60; format: cell-based, human; conditions: 72 h
Method: as §1, §2

[3] = tested on: SUNE1 cells; assay: Apoptosis induction by flow cytometry (AV-FITC / PI); format: cell-based; conditions: 72 h
Method: Since cancer is characterized by uncontrolled cellular proliferation, there is a considerable interest in chemotherapeutic-induced apoptosis [J. C. Reed, Nature Rev. Drug Discov. 2002, 1, 111; D. W. Nicholson, Nature 2000, 407, 810]. Using fluorescein-labeled annexin V (AV-FITC) and propidium iodide (PI), the apoptosis-inducing properties of complex 1 in SUNE1 cells were examined by flow cytometry. […] The apoptosis-inducing properties of complex 1 at a lower dose (12 μM for 72 h) were also examined. […] According to the propagation profiles (formazan absorbance A550nm vs incubation time) of the treated SUNE1 cells, there is a trend of cellular growth inhibition in the presence of complex 1 at 12 μM level. Taken together with the flow cytometric results, complex 1 appears to inhibit cancer cell proliferation at 12 μM and induce apoptosis at higher doses (i.e. 60 μM).
The apoptosis-inducing properties of complex 14 in SUNE1 cells were also examined by flow cytometry. […] The apoptosis-inducing properties of complex 14 at a lower dose (1 μM for 72 h) were also examined. […] Thus, complex 14 could induce apoptosis at 10 μM.

[4] = tested on: non-small cell lung carcinoma (NCI-H460); assay: MTT cytotoxicity assay, NCI-H460; format: cell-based, human; conditions: 72 h
Method: as §1, §2

[5] = tested on: established human cancer cell lines; assay: MTT cytotoxicity, panel of cancer cell lines (summary statements); format: cell-based; conditions: in terms of IC50, versus cisplatin
Method: as §2

[6] = tested on: cervical epithelioid carcinoma (HeLa); assay: MTT cytotoxicity assay, HeLa; format: cell-based, human; conditions: 72 h
Method: as §1, §2

[7] = tested on: melanoma (B16); assay: MTT cytotoxicity assay, B16; format: cell-based, mouse; conditions: 72 h
Method: as §1, §2

[8] = target: T1, topoisomerase I (TopoI) (Homo sapiens, UniProt P11387); assay: TopoI-mediated relaxation of supercoiled DNA; format: biochemical
T1 sequence (P11387 1-765): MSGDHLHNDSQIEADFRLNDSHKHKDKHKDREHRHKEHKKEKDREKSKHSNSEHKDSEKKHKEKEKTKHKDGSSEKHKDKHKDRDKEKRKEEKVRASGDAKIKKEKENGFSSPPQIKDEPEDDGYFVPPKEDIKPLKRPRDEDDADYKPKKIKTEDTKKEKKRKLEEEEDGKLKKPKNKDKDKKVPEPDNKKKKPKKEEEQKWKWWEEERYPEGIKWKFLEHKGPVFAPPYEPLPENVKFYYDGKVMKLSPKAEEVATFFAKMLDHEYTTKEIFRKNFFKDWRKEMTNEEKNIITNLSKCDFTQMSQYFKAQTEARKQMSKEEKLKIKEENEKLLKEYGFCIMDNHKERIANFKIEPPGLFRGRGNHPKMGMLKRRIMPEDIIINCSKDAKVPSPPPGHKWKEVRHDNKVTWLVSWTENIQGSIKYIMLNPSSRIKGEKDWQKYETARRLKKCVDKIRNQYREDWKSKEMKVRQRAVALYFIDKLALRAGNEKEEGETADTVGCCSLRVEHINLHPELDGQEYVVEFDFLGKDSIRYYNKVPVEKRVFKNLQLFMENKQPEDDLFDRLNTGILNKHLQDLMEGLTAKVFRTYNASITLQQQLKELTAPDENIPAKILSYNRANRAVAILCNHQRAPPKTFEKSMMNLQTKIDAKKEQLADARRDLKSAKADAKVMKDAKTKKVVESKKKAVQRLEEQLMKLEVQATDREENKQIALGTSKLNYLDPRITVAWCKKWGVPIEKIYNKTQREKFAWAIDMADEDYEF
Text: DNA strand breaks were also detected in complex 1-treated KB cells by alkaline comet assay. […] Topoisomerases have become one of the important cellular targets for anti-cancer treatment. It is believed that topoisomerase inhibitors prevent the ligation step of the cell cycle, generate DNA strand breaks, and subsequently induce apoptosis in cells. […] The assay was repeated on ethidium bromide containing gel (FIG. 4, lower).

[9] = tested on: breast carcinoma (MDA-MB-231); assay: MTT cytotoxicity assay, MDA-MB-231; format: cell-based, human; conditions: 72 h, MBA-MD-231
Method: as §1, §2

[10] = tested on: lung fibroblast cells (CCD-19Lu); assay: MTT cytotoxicity to non-cancerous cells, CCD-19Lu; format: cell-based, human; conditions: 72 h, non-cancerous lung fibroblast cells CCD-19Lu
Method: as §2
Using lung fibroblast cells (CCD-19Lu), the cytotoxicity of the complexes to non-cancerous cells was also examined.

[11] = tested on: epithelial carcinoma (KB); assay: MTT cytotoxicity assay, KB; format: cell-based, human; conditions: 72 h
Method: as §1, §2

[12] = target: T2, TopoI (Homo sapiens, UniProt P11387); assay: Band depletion assay for TopoI cleavable complexes; format: cell-based; conditions: 10 and 100 nM, KB cells
T2 construct: endogenous in cells; host or cells: KB cells
T2 sequence (P11387 1-765): T1 sequence (P11387 1-765)
Text: In this assay, while TopoI-DNA cleavable complexes are trapped by alkaline lysis, free TopoI is detected as an immunoreactive band.

[13] = tested on: KB cells; assay: Alkaline comet assay for DNA strand breaks; format: cell-based
[14] = tested on: camptothecin-resistant cell line KB100; assay: MTT cytotoxicity assay, KB100; format: cell-based, human; conditions: 72 h
Method: as §1, §2

[15] = tested on: PLC tumor (hepatocellular carcinoma); assay: In vivo anti-cancer study, nude mice bearing PLC tumor; conditions: 3 mg/kg/week for 28 days
Text: Prompted by the prominent in vitro cytotoxicity and the potential cancer-cell selectivity, the in vivo anti-cancer property of complex 1 was preliminarily examined by using nude mice models with the approval from the Committee on the Use of Live Animals for Teaching and Research (The University of Hong Kong).

Structure (SMILES): Cn1cc[n+](C)[c]1[Au-]12[c]3ccccc3-c3cccc([n+]31)-c1cccc[c]12.O=S(=O)([O-])C(F)(F)F [Complex 1]
- IC50 [1]: 370 nM
- IC50 [2]: 480 nM
- viable cells unstained by both AV-FITC and PI ([3]; 12 μM): ~90%
- SUNE1 cells in early apoptotic state ([3]; 60 μM): 30.9%
- IC50 [4]: 170 nM
- fold higher cytotoxic activity than cisplatin [5]: 18 to 28 fold
- IC50 [6]: 150 nM
- IC50 [7]: 330 nM
- inhibition of TopoI-mediated DNA relaxation ([8]; 10 μM): completely inhibited
- inhibition of TopoI-mediated DNA relaxation ([8]; dose response, compared with CPT): dose-dependently inhibits DNA relaxation at significant lower concentrations than CPT
- nicked DNA (stimulation of DNA cleavage by TopoI) ([8]; ethidium bromide containing gel): presence of nicked DNA was observed
- IC50 [9]: 620 nM
- IC50 [10]: 25000 nM
- IC50 [11]: 560 nM
- band intensity of the TopoI band [12]: reduced the band intensity of the TopoI band
- strand breaks on chromosomal DNA (comet assay) ([13]; 0.5 μM, 3 h, KB cells): induced extensive strand breaks on chromosomal DNA
- reversal of DNA cleavage events upon second incubation ([13]; second incubation at 55° C. for 10 min): partially reversed
- IC50 [14]: 1200 nM
- toxic side-effect including death and weight loss ([15]; nude mice): no apparent 1-induced toxic side-effect including death and weight loss was observed
- suppression of tumor growth compared to vehicle control ([15]; nude mice bearing PLC tumor): 47%
